Measured values taken from ChEMBL document CHEMBL1201862, “PubChem BioAssay data set” (2004).
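Briefly, cells in 96-well plates were exposed to five compound concentrations for 48 h, and endpoints were estimated by linear interpolation. Here, GI50 denotes the concentration required for 50% inhibition of growth.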 Calls of active or inactive are those of the source. Cut-off read from the data, not from the text of the source: active = GI50 up to about 1.1 µM and inactive = higher.

Legend:
Assay in all cases: NCI anticancer screen, dose series, 48 h
UACC-257 = system: UACC-257
NCI-H226 = system: NCI-H226
A549 = system: A549
IGROV-1 = system: IGROV-1
KM-20L2 = system: KM-20L2
OVCAR-4 = system: OVCAR-4
KM12 = system: KM12
CAKI-1 = system: CAKI-1
SF-295 = system: SF-295
HOP-62 = system: HOP-62
DMS-273 = system: DMS-273
MOLT-4 = system: MOLT-4
TK-10 = system: TK-10
NCI-H23 = system: NCI-H23
HOP-18 = system: HOP-18
DMS-114 = system: DMS-114
UO-31 = system: UO-31
OVCAR-3 = system: OVCAR-3
SN12C = system: SN12C
NCI-H460 = system: NCI-H460
XF498 = system: XF498
A498 = system: A498
SK-MEL-2 = system: SK-MEL-2
CCRF-CEM = system: CCRF-CEM
HOP-92 = system: HOP-92
SF-268 = system: SF-268
Malme-3M = system: Malme-3M
SK-MEL-5 = system: SK-MEL-5
786-0 = system: 786-0
ACHN = system: ACHN
K562 = system: K562
NCI-H522 = system: NCI-H522
SK-MEL-28 = system: SK-MEL-28
M19-MEL = system: M19-MEL
SNB-75 = system: SNB-75
M14 = system: M14
SK-OV-3 = system: SK-OV-3
SF-539 = system: SF-539
LXFL 529 = system: LXFL 529
HCT-116 = system: HCT-116
SNB-78 = system: SNB-78
SNB-19 = system: SNB-19
RPMI-8226 = system: RPMI-8226
UACC-62 = system: UACC-62
SW-620 = system: SW-620
OVCAR-8 = system: OVCAR-8
COLO 205 = system: COLO 205
HL-60 = system: HL-60
OVCAR-5 = system: OVCAR-5
HCC 2998 = system: HCC 2998
HT-29 = system: HT-29
EKVX = system: EKVX
HCT-15 = system: HCT-15
U-251 = system: U-251

Q: What does the source list for `O=c1c2ccc(Br)cc2nc(-c2ccccc2)n1NC1OC(CO)C(O)C(O)C1O` (centres undefined)?
A: GI50 (UACC-257): > 100 µM (inactive); GI50 (NCI-H226): > 100 µM (inactive); GI50 (A549): > 100 µM (inactive); GI50 (IGROV-1): > 100 µM (inactive); GI50 (KM-20L2): > 100 µM (inactive); GI50 (OVCAR-4): > 100 µM (inactive); GI50 (KM12): > 100 µM (inactive); GI50 (CAKI-1): > 100 µM (inactive); GI50 (SF-295): > 100 µM (inactive); GI50 (HOP-62): 59.3 µM (inactive); GI50 (DMS-273): > 100 µM (inactive); GI50 (MOLT-4): 57.3 µM (inactive); GI50 (TK-10): > 100 µM (inactive); GI50 (NCI-H23): > 100 µM (inactive); GI50 (HOP-18): > 100 µM (inactive); GI50 (DMS-114): > 100 µM (inactive); GI50 (UO-31): > 100 µM (inactive); GI50 (OVCAR-3): > 100 µM (inactive); GI50 (SN12C): > 100 µM (inactive); GI50 (NCI-H460): > 100 µM (inactive); GI50 (XF498): > 100 µM (inactive); GI50 (A498): > 100 µM (inactive); GI50 (SK-MEL-2): > 100 µM (inactive); GI50 (CCRF-CEM): 72.9 µM (inactive); GI50 (HOP-92): > 100 µM (inactive); GI50 (SF-268): > 100 µM (inactive); GI50 (Malme-3M): > 100 µM (inactive); GI50 (SK-MEL-5): > 100 µM (inactive); GI50 (786-0): > 100 µM (inactive); GI50 (ACHN): > 100 µM (inactive); GI50 (K562): > 100 µM (inactive); GI50 (NCI-H522): > 100 µM (inactive); GI50 (SK-MEL-28): > 100 µM (inactive); GI50 (M19-MEL): > 100 µM (inactive); GI50 (SNB-75): > 100 µM (inactive); GI50 (M14): > 100 µM (inactive); GI50 (SK-OV-3): > 100 µM (inactive); GI50 (SF-539): > 100 µM (inactive); GI50 (LXFL 529): > 100 µM (inactive); GI50 (HCT-116): > 100 µM (inactive); GI50 (SNB-78): > 100 µM (inactive); GI50 (SNB-19): > 100 µM (inactive); GI50 (RPMI-8226): > 100 µM (inactive); GI50 (UACC-62): > 100 µM (inactive); GI50 (SW-620): > 100 µM (inactive); GI50 (OVCAR-8): > 100 µM (inactive); GI50 (COLO 205): > 100 µM (inactive); GI50 (HL-60): > 100 µM (inactive); GI50 (OVCAR-5): > 100 µM (inactive); GI50 (HCC 2998): > 100 µM (inactive); GI50 (HT-29): > 100 µM (inactive); GI50 (EKVX): > 100 µM (inactive); GI50 (HCT-15): > 100 µM; GI50 (U-251): > 100 µM (inactive)
